Measurements taken from patent US20120012123A1, “COMPOSITIONS, ARTICLES AND METHODS FOR PREVENTING OR REDUCING TOBACCO-ASSOCIATED DAMAGE” (Technion Research & Development Foundation Ltd., priority 2007, published 2012).

Assays:
[1] = test system: H1299 human lung cancer cells; assay: H1299 cells survival after cigarette smoke (CS) exposure with/without saliva, Trypan Blue exclusion test; assay type: cell-based
Description: During smoke exposure, the cells were put into a smoking sealed chamber (33.5 cm^3) with CS pressure of 0.3 Bar. Control cells were subjected to the same procedures, but exposed only to fresh air. Cells were exposed to CS for one “puffs” every 15 minute for a 2 hours (120 minutes) period (unless indicated otherwise). Cells were used when it becomes confluent and the medium (with/without saliva) volume was compatibly to the dish in use.
The H1299 cells viability was measured at various time points by Trypan Blue exclusion test, both in exposed and control cells.
The medium covering the dish was collected and cells were trypsinized and centrifuged at 1200×g for 10 minutes. Cell pellets were re-suspended in 1 mL of medium and a sample was collect for cell counting. Cells were stained with the vital dye Trypan Blue at final concentration of 0.25% and were placed on hemocytometer. Visual counting was preformed by inverted microscope.
H1299 cells were incubated for 120 minutes with or without the presence of saliva in the culture medium and exposed to CS. […] Cell viability was evaluated by Trypan blue exclusion dye assay.

[2] = test system: p53; assay: Total p53 expression levels, Western blot analysis; assay type: cell-based, human; settings: 2 mM GSH, exposure of CS 120 minutes and 33% saliva (FIG. 17)
Description: Western blot analysis was used to assay the protein expression levels of the P53, using β-actin signal as a loading reference. Samples with equal amount of protein (20 μg protein/lane) were prepared in 2× sample buffer (0.125 M 2-amino-2-(hydroxymethyl)propane-1,3-diol (Tris)-HCl, pH 6.8, glycerol (20% v/v), SDS (4% w/v), 0.14 M β-mercaptoethanol and bromophenol blue (0.005% w/v)). The samples were boiled for 10 minutes and subjected to electrophoresis through 12% SDS-polyacrylamide gel in running buffer, or stored at −20° C. until further use. The gels were then electrophoretically transferred to nitrocellulose membranes for 90 minutes at 90 W, in transfer buffer containing 20 mM Tris-HCl, pH 6.8, 150 mM Glycine and 20% (v/v) methanol. Blots were blocked in 5% non-fat milk in PBS-T (62.5 mM sodium phosphate buffer, pH 7.4, containing 100 mM NaCl and 0.1% (v/v) Tween-20) and then incubated for 2 hours or overnight at 4° C. with rabbit antihuman p53 1:5000 or mouse antihuman β-actin 1:15000. […] Binding of antibodies to the membrane was detected with an EZ-ECL-detection reagent, X-Omat blue XB-1 Kodak scientific Imaging Film for 10 seconds-15 minutes.
The effect of CS on p53 accumulation was analyzed. […] Western blot analysis was performed and the amount of p53 was evaluated.

[3] = test system: oral cancer cells (SCC-25); assay: Oral cancer cells (SCC-25) survival after CS exposure with/without saliva, Trypan blue assay; assay type: cell-based; settings: 5 mM PenA, CS 120 minutes
Excerpt: In FIG. 18A, (n=14) and (p=0.0024) and in […], (n=7) and (p=0.015).
Similar results were obtained with oral cancer cells (SCC-25).

[4] = test system: H1299 cells; assay: Cell viability by Propidium Iodide (PI) fluorescence, flow cytometry, after CS exposure; assay type: cell-based, human; settings: mean ± SD, n = 4
Description: FACS was used to monitor cell-cycle and cell-viability after CS exposure with/without saliva presence. After cells were exposed to ROS attack, medium covering the cells was removed and cells were trypsinized. For cell viability, cell suspension was centrifuged at 1200×g for 10 minutes and the pellets were re-suspended in 0.5 ml of 10 μg/ml Propidium iodide (PI) and incubated for 15 minutes at dark condition, 4° C. The cell suspensions were thereafter analyzed with a flow cytometer, using CellQuest software. […] PI is excluded by viable cells, and penetrates to cell membranes of dead cells. H1299 cells were incubated for 120 minutes with or without the presence of saliva in the culture medium and exposed to CS. […] Cell viability was evaluated by fluorescence assay.

[5] = test system: H1299 cells; assay: Protein carbonyl assay (ELISA) on H1299 cells exposed to CS; assay type: cell-based, human; settings: 5 mM PenA
Description: Protein carbonyl concentration was determined by enzyme-linked immunosorbent assay (ELISA), using the Zentech PC Test Kit (Zenith Technology, Dunedin, New Zealand). Briefly, protein cell extractions were allowed to react with a dinitrophenylhydrazine (DNP) solution (200 μl). The DNP-reacted proteins bound non-specifically to an ELISA plate, and the unconjugated DNP and non-protein entities were washed away. The adsorbed DNP-protein was then probed with an anti-DNP-biotin antibody, followed by a streptavidin-linked HRP probe. Then the […] reagent that contained peroxide was added to catalyze the oxidation of TMB. Finally, the reaction was stopped by the addition of a stopping reagent (acid, provided with the kit), and the absorbance was measured for each well at 450 nm using a spectrophotometer. Along with controls and samples, protein carbonyl standards were also included in the assay. The content of the carbonyl protein in the mitochondrial samples was determined as pmol/mg protein, using the standard curve.

[6] = test system: H1299 lung cancer cells; assay: Mitochondrial membrane potential (ΔΨm), JC-1 incorporation by flow cytometry; assay type: cell-based, human; settings: 5 mM agent
Description: (§1) For mitochondrial oxidative damage, pellets were re-suspended in 0.5 ml of 10 μg/ml 10-N-nonyl acridine orange (NAO) and incubated for 30 minutes at 37° C. and dark condition. Mitocondrial membrane potential was measured after staining cells with 1 μg/ml JC-1 (5,5′,6,6′-tetrachloro-1,1′,3,3′-tetraethylbenzimidazolyl carbocyanine iodide; Molecular Probes) for 30 minutes at 37° C. in the dark. Uncoupling with carbonyl cyanide p-trifluoromethoxyphenylhydrazone (FCCP) (20 µM for 30 minutes) was used as positive control.
Mitochondrial membrane permeabilization is an essential step leading to apoptosis. Disruption of ΔΨm irreversibly commits cells to undergo death and is an early marker of apoptosis. Furthermore, cigarette smoke was previously shown to induce mitochondrial depolarization in human monocytes. Therefore, reduced ΔΨm, as measured by diminished incorporation of the fluorescent dye JC-1, was used as an early indicator for CS-induced apoptosis.
H1299 lung cancer calls were exposed for 120 minutes to CS with or without saliva. […] JC-1 incorporation was measured by flow cytometry method.

[7] = test system: H1299 lung cells; assay: Mitochondrial oxidative damage, NAO binding to cardiolipin by flow cytometry; assay type: cell-based, human; settings: 5 mM agent, 120 minutes of CS exposure (FIG. 15)
Description: as §1
The mitochondrial quality is the amount of all the intra-cellular mitochondria and their content, and it is an important index of mitochondrial injury. Nonyl-Acridine Orange (NAO) is a fluorescent dye that can bind specifically to unoxidizable cardiolipin (CL), a mitochondrial phospholipid, independent of the mitochondria energetic state (ΔΨm). NAO lost its affinity for CL with a hydroperoxide fatty acid (CL-OOH).
NAO flow cytometry was used to measure the quality of H1299 lung cells exposed for 120 minutes to CS with or without saliva.

## CC(=O)N(O)CCCCCNC(=O)CCC(=O)N(O)CCCCCNC(=O)CCC(=O)N(O)CCCCCN [DES, deferoxamine]
[1]; 5 mM DES, CS 120 minutes and saliva (FIG. 12)
  cellular death rate: 20.5%

## N[C@@H](CCC(=O)N[C@@H](CS)C(=O)NCC(=O)O)C(=O)O [GSH, L-c-glutamyl-L-cysteinyl-glycine]
[1]; 2 mM GSH, CS exposure alone, no saliva
  protection of cell survival (in words): no additional protection
[1]; 2 mM GSH, CS exposure, saliva-containing medium (30% v/v) (FIG. 9)
  increase of cell survival: more than 50%
[2]
  prevention of p53 downregulation (in words): totally preventing

## CC(C)(S)[C@@H](N)C(=O)O [PenA, D-penicillamine]
[1]; 1 mM and 5 mM PenA, CS exposure, medium or medium + 30% saliva (FIG. 7)
  effect on survival rate, 1 mM versus 5 mM (in words): dose-dependent effect
[1]; 5 mM PenA, 120 minutes of exposure to CS, medium without saliva
  reduction of cells loss: 25%
[1]; 5 mM PenA, CS 120 minutes, medium + 30% saliva (FIG. 7)
  survival rate: 76.4%
[1]; 5 mM PenA, CS 120 minutes, medium alone, no saliva (FIG. 7)
  survival rate: 75.5%
[1]; 5 mM PenA, saliva supplemented to the medium prior to exposure to CS
  reduction of cells loss (in words): Reduction of cells loss was also observed
[1]; PenA, CS 120 minutes, medium alone, percent of control (FIG. 6A)
  increase of cells survival: 12%
[1]; PenA, CS 120 minutes, saliva-containing medium (30% v/v), percent of control (FIG. 6A)
  increase of cell survival: 20%
[3]; absence of saliva (FIG. 18A)
  survival loss: 23%
[3]; saliva added to medium (FIG. 18B)
  survival loss: 22%
[4]; CS 120 minutes + 5 mM PenA + saliva
  Positive dead cells (%): 2.33%
[4]; CS 120 minutes + 5 mM PenA, no saliva
  Positive dead cells (%): 2.98%
[4]; Medium + 5 mM PenA + saliva, no CS
  Positive dead cells (%): 4.15%
[4]; Medium + 5 mM PenA, no CS, no saliva
  Positive dead cells (%): 3.75%
[5]; CS 60 minutes and saliva (FIG. 11)
  protein carbonyl content: 4.02 nmol/mg protein
[5]; CS 60 minutes, medium alone (FIG. 11)
  protein carbonyl content: 4.45 nmol/mg protein
[6]; CS 120 minutes alone, no saliva (FIG. 14)
  protection against ΔΨm losses (in words): strong protection
[6]; CS 120 minutes and 33% saliva (FIG. 14)
  protection against ΔΨm losses (in words): no significant change
[7]
  amount of NAO bound to mitochondrial CL (in words): the same
